From patent US20230248689A1, “PHARMACEUTICAL FORMULATIONS OF GRISEOFULVIN FOR LONG-TERM OCULAR DELIVERY” (Purdue Research Foundation, priority 2020, published 2023) come the findings set out here.

Test [1] deals with human retinal endothelial cells (HRECs). Kind of test: Anti-proliferative effect on HRECs (Alamar Blue). It is filed as cell-based. As to conditions: 100 μM GRF equivalent, 48 hours. The protocol:
Human retinal endothelial cells (HREC) were plated in transparent 96 well plates at a density of 2500 cells per well in 100 μL of growth medium and incubated for 24 h at 37° C. The medium was replaced with the samples collected at different time points. After 48 hours incubation, 11.1 μL Alamar Blue reagent was added to each well. After 4 hours incubation, plates were centrifuged at 200 g for 5 minutes, and 50 μL supernatant was transferred to black 96 well plates. Fluorescence intensity of each well was read with excitation and emission wavelengths of 560 nm and 590 nm, respectively.

The subject of test [2] is human retinal endothelial cells (HREC). Kind of test: Long-term proliferation assay on HRECs with release samples collected over time. It is filed as cell-based. As for the experimental part: The formulations of the present invention, i.e. microparticles (MPs) or nanoparticles (NPs) of the griseofulvin (GRF) were tested for in vitro cell study, in particular long-term proliferation assay. This study provides an estimation of in vivo effect of griseofulvin formulations. To compare the long-term antiproliferative effect on human retinal endothelial cells (HREC), time averaged proliferation inhibition index (PII) was calculated (Σ AUC/time) from the plot of % proliferation at each time vs. time. The higher the PII indicating the prolonged anti-proliferative effects on HREC.
The long-term anti-proliferation effect of GRF loaded NPs from example 3B was studied, wherein GRF-PLGA-NPs were dispersed in 0.5 mL of growth media at GRF concentration ranging from 600 μM to 1200 μM. At specific time points (1, 2, 3, 4, 5, 6, 7, 10, 15, 20, and 25 days), tubes were centrifuged at 5k rpm for 5 minutes and the supernatant was collected and stored at −80° C. Pellet was redispersed in 0.5 mL fresh media, and the incubation was continued. […]
Human retinal endothelial cells (HREC) were plated in transparent 96 well plates at a density of 2500 cells per well in 100 μL of growth medium and incubated for 24 h at 37° C. […] Fluorescence intensity of each well was read with excitation and emission wavelengths of 560 nm and 590 nm, respectively. […]

Take `COC1=CC(=O)C[C@@H](C)[C@]12Oc1c(Cl)c(OC)cc(OC)c1C2=O` [Free GRF, (2S,6′R)-7-chloro-2′,4,6-trimethoxy-6′-methyl-3H-spiro[benzofuran-2,1′-cyclohexan]-2′-ene-3,4′-dione]: the “inhibited proliferation of HRECs” value in test [1] came out at 53.5%. Moreover, in test [2] (release samples over the incubation period), the “long-term anti-proliferative effect on HREC (in words)” value was “effective only at the first time point”. The “time averaged proliferation inhibition index (PII)” value in test [2] (Σ AUC/time from % proliferation vs. time plot, HREC) is listed as 13.6.
